# Measurements as given in paper PMC8057092, “Cytotoxic activity of standardized extracts, a fraction, and individual secondary metabolites from fenugreek seeds against SKOV-3, HeLa and MOLT-4 cell lines” (Pharmaceutical Biology, 2021).
# Entries after “also recorded” stand apart in the source; their conditions may differ. Where two headings read alike, the source gives them in different places.
# Key:
# Assay type in all cases: cell-based, human
# [1] = tested on: SKOV-3, HeLa and MOLT-4 cell lines; experiment: Cytotoxicity (MTT) on the tested cell lines, stated jointly; details: for cytotoxic activity, in words: NCI guideline: cytotoxic if IC50 under 20–30 μg/mL; for IC50: Homo sapiens, read-out: IC50, tested cell lines
# Protocol: The viability of all the cells was determined by 3-(4,5-dimethylthiazol-2-yl)-2,5-diphenyltetrazolium bromide (MTT) assay. […] The range of concentrations was selected experimentally to obtain symmetrical sigmoidal shape of dose-response curves generated by GraFit v. 7 (Erithacus Software, West Sussex, UK). […] Following treatment, the media with the extracts, fraction and compounds were removed and replaced with fresh media with MTT (0.5 mg/mL). After 3 h of incubation, the absorption of the formazan solution was measured at 570 nm with a plate reader (Epoch, BioTek, Winooski, VT, USA). The results are expressed as IC50 mean values (±SD, standard deviation) of at least two independent experiments, in six repetitions. To determine the cytotoxic selectivity of the extracts, fraction and compounds, the selectivity index (SI) was calculated according to the formula: SI = IC50^(non-cancer cells)/IC50^(cancer cells) (Table 1).
# [2] = tested on: HeLa cells; experiment: MTT assay, HeLa; details: for IC50 ± SD, HeLa / IC50: 24 h; for Selectivity index (SI), HeLa: SI = IC50 HaCaT/IC50 HeLa, from MTT results; for IC50: Homo sapiens, HeLa, read-out: IC50 ± SD, HeLa
# Protocol: (§1) The human cervical (HeLa S3) and ovarian (SKOV-3) adenocarcinomas, acute human lymphoblastic leukaemia (MOLT-4) cell lines and human keratinocytes (HaCaT) were obtained from the American Type Culture Collection (ATCC, Manassas, VA, USA). […] All the media were supplemented with 10% (v/v) foetal bovine serum (FBS), 2 mM L-glutamine (except for McCoy’s 5 A), 100 units/mL of penicillin, 100 µg/mL of streptomycin (Sigma-Aldrich), and were kept at 37 °C in a humidified 5% CO2 incubator. The viability of all the cells was determined by 3-(4,5-dimethylthiazol-2-yl)-2,5-diphenyltetrazolium bromide (MTT) assay. […] The range of concentrations was selected experimentally to obtain symmetrical sigmoidal shape of dose-response curves generated by GraFit v. 7 (Erithacus Software, West Sussex, UK). […] Following treatment, the media with the extracts, fraction and compounds were removed and replaced with fresh media with MTT (0.5 mg/mL). After 3 h of incubation, the absorption of the formazan solution was measured at 570 nm with a plate reader (Epoch, BioTek, Winooski, VT, USA). The results are expressed as IC50 mean values (±SD, standard deviation) of at least two independent experiments, in six repetitions.
# [3] = tested on: HeLa cells; experiment: RTCA (xCELLigence) cell proliferation assay, HeLa; details: for Selectivity index (SI), HeLa: SI = IC50 HaCaT/IC50 HeLa, from RTCA results; for IC50: Homo sapiens, HeLa, read-out: IC50 ± SD, HeLa
# Protocol: (§2) The human cervical (HeLa S3) and ovarian (SKOV-3) adenocarcinomas, acute human lymphoblastic leukaemia (MOLT-4) cell lines and human keratinocytes (HaCaT) were obtained from the American Type Culture Collection (ATCC, Manassas, VA, USA). The HeLa and HaCaT cells were cultured in Dulbecco’s Modified Eagle’s Medium (DMEM), SKOV-3 and MOLT-4 cells were cultured in McCoy’s 5 A and RPMI 1640 Media, respectively. All the media were supplemented with 10% (v/v) foetal bovine serum (FBS), 2 mM L-glutamine (except for McCoy’s 5 A), 100 units/mL of penicillin, 100 µg/mL of streptomycin (Sigma-Aldrich), and were kept at 37 °C in a humidified 5% CO2 incubator.
# (§3) The xCELLigence Real-Time Cell Analyzer Dual Plate (RTCA DP, ACEA Biosciences, San Diego, CA, USA) was used for monitoring of viability of adherent cells (HeLa, SKOV-3 and HaCaT) treated with the extracts (A, B), fraction C and sapogenins for 24 h. The cells were seeded at a density of 2 × 10^4 cells/well into E-plate 16 (ACEA Biosciences). When the cells entered log phase, the extracts, fraction and steroidal saponins were added in the final concentration range of 5.0–120.0 µg/mL, 5.0–100.0 µg/mL, and 1.0–50.0 µg/mL, respectively. The range of concentrations was selected experimentally to obtain symmetrical sigmoidal shape of dose-response curves generated by RTCA software v. 1.2.1 (ACEA Biosciences). The maximal concentrations of the extract A, fraction and compounds solvents in the RTCA experiments were 4.0% (v/v) for methanol and 0.8% (v/v) for DMSO. To obtain viability profiles and calculate IC50 values, we used the RTCA software v. 1.2.1. All the experiments were performed in duplicate, in three independent repeats.
# [4] = tested on: SKOV-3 cells; experiment: RTCA (xCELLigence) cell proliferation assay, SKOV-3; details: for IC50 ± SD, SKOV-3 / IC50: RTCA, 24 h; for Selectivity index (SI), SKOV-3: SI = IC50 HaCaT/IC50 SKOV-3, from RTCA results; for IC50: Homo sapiens, SK-OV-3, 24 h, read-out: IC50 ± SD, SKOV-3
# Protocol: as §2, §3
# [5] = tested on: HaCaT cells; experiment: RTCA (xCELLigence) cell proliferation assay, HaCaT; details: 24 h; for IC50: Homo sapiens, HaCaT, read-out: IC50 ± SD, HaCaT
# Protocol: as §2, §3
# [6] = tested on: HaCaT cells; experiment: MTT assay, HaCaT keratinocytes; details: 24 h; for IC50: Homo sapiens, HaCaT, read-out: IC50 ± SD, HaCaT
# Protocol: as §1
# [7] = tested on: SKOV-3 cells; experiment: MTT assay, SKOV-3; details: for Selectivity index (SI), SKOV-3: SI = IC50 HaCaT/IC50 SKOV-3, from MTT results; for IC50: Homo sapiens, read-out: IC50 ± SD, SKOV-3
# Protocol: as §1
# [8] = MTT, stated jointly for the tested cell lines
"IC50 ± SD, HeLa ([2]; MTT)","IC50 ± SD, SKOV-3 ([7]; MTT, 24 h)",IC50 ([2]; MTT),"IC50 ([7]; SK-OV-3, MTT, 24 h)",Structure (SMILES),"cytotoxic activity, in words ([1]; MTT)","Selectivity index (SI), HeLa [2]","Selectivity index (SI), HeLa [3]","Selectivity index (SI), SKOV-3 [4]","IC50 ± SD, HaCaT ([6]; MTT)","Selectivity index (SI), SKOV-3 [7]","IC50, tested cell lines [1, 8]",IC50 ([6]; MTT),also measured
>50 µg/mL,>50 µg/mL,–,–,O=c1cc(-c2ccc(O)cc2)oc2c([C@@H]3OC[C@@H](O)[C@H](O)[C@H]3O)c(O)c([C@@H]3O[C@H](CO)[C@@H](O)[C@H](O)[C@H]3O)c(O)c12 [Vicenin-3],inactive,–,–,–,>50 µg/mL,–,> 50 µg/mL,–,–
–,–,> 50 µg/mL,> 50 µg/mL,C[n+]1cccc(C(=O)[O-])c1 [Trigonelline],–,–,–,–,–,–,–,> 50 µg/mL,"IC50 [1, 8]: > 50 µg/mL"
>50 µg/mL,>50 µg/mL,–,–,O=c1cc(-c2ccc(O)cc2)oc2c([C@@H]3O[C@H](CO)[C@@H](O)[C@H](O)[C@H]3O)c(O)c([C@@H]3O[C@H](CO)[C@@H](O)[C@H](O)[C@H]3O)c(O)c12 [Vicenin-2],inactive,–,–,–,>50 µg/mL,–,> 50 µg/mL,–,–
>50 µg/mL,>50 µg/mL,–,–,O=c1cc(-c2ccc(O)cc2)oc2c([C@@H]3O[C@H](CO)[C@@H](O)[C@H](O)[C@H]3O)c(O)c([C@@H]3OC[C@@H](O)[C@H](O)[C@H]3O)c(O)c12 [Vicenin-1],–,–,–,–,>50 µg/mL,–,> 50 µg/mL,–,–

# The next lines start with the compound.
Structure (SMILES),"IC50 ± SD, HeLa ([2]; MTT)","IC50 ± SD, SKOV-3 ([7]; MTT, 24 h)",IC50 ([2]; MTT),"IC50 ([7]; SK-OV-3, MTT, 24 h)","cytotoxic activity, in words ([1]; MTT)","Selectivity index (SI), HeLa [2]","Selectivity index (SI), HeLa [3]","Selectivity index (SI), SKOV-3 [4]","IC50 ± SD, HaCaT ([6]; MTT)","Selectivity index (SI), SKOV-3 [7]","IC50, tested cell lines [1, 8]",IC50 ([6]; MTT),also measured
C[C@H]1CC[C@@]2(OC1)O[C@H]1C[C@H]3[C@@H]4CC=C5C[C@@H](O)CC[C@]5(C)[C@H]4CC[C@]3(C)[C@H]1[C@@H]2C [Yamogenin],16.5 ± 0.59 µg/mL,16.70 ± 0.08 µg/mL,–,–,cytotoxic; also recorded: active,0.59,0.84,0.69,9.70 ± 0.91 µg/mL,0.58,–,–,"IC50 ± SD, HeLa ([3]; RTCA, 24 h): 19.60 ± 1.41 µg/mL; IC50 ± SD, SKOV-3 [4]: 23.90 ± 1.48 µg/mL; IC50 ± SD, SKOV-3 ([4]; listed as yamogenin): about 20 μg/mL; IC50 ± SD, HaCaT [5]: 16.40 ± 1.41 µg/mL"
O=c1cc(-c2ccc(O)c(O)c2)oc2c([C@@H]3O[C@H](CO)[C@@H](O)[C@H](O)[C@H]3O)c(O)cc(O)c12 [Orientin],–,–,–,–,inactive,–,–,–,–,–,–,–,"IC50 [1]: > 50 µg/mL; IC50 [2]: > 50 µg/mL; IC50 [6]: > 50 µg/mL; IC50 ([7]; SK-OV-3, 24 h): > 50 µg/mL"
O=c1cc(-c2ccc(O)c(O)c2)oc2cc(O)c([C@@H]3O[C@H](CO)[C@@H](O)[C@H](O)[C@H]3O)c(O)c12 [Isoorientin],–,–,> 50 µg/mL,> 50 µg/mL,inactive,–,–,–,–,–,–,> 50 µg/mL,"IC50 [1, 8]: > 50 µg/mL"
O=c1cc(-c2ccc(O)cc2)oc2c([C@@H]3O[C@H](CO)[C@@H](O)[C@H](O)[C@H]3O)c(O)cc(O)c12 [Vitexin],–,–,–,–,inactive,–,–,–,–,–,–,–,"IC50 [1]: > 50 µg/mL; IC50 [6]: > 50 µg/mL; IC50 ([7]; SK-OV-3, 24 h): > 50 µg/mL"
C[C@@H]1CC[C@@]2(OC1)O[C@H]1C[C@H]3[C@@H]4CC[C@H]5C[C@@H](O)CC[C@]5(C)[C@H]4CC[C@]3(C)[C@H]1[C@@H]2C [Tigogenin],–,lowest activity,35.6 ± 3.69 µg/mL,> 50 µg/mL,active,0.87,1.30,1.16,–,< 0.62,–,31.1 ± 2.31 µg/mL,"IC50 ([3]; RTCA, 24 h): 25.1 ± 0.12 µg/mL; IC50 [4]: 28.3 ± 3.46 µg/mL; IC50 [5]: 32.7 ± 0.07 µg/mL"
C[C@@H]1CC[C@@]2(OC1)O[C@H]1C[C@H]3[C@@H]4CC=C5C[C@@H](O)CC[C@]5(C)[C@H]4CC[C@]3(C)[C@H]1[C@@H]2C [Diosgenin],–,–,16.3 ± 0.26 µg/mL,19.3 ± 0.97 µg/mL,cytotoxic; also recorded: active,0.76,0.84,1.38,–,0.64,–,12.4 ± 0.5 µg/mL,"IC50 ([3]; RTCA, 24 h): 28 ± 2.4 µg/mL; IC50 [4]: ~20 µg/mL; IC50 ± SD, SKOV-3 [4]: 16.90 ± 2.89 µg/mL; IC50 [5]: 23.4 ± 0.42 µg/mL"
